Measured values as given in patent US6849649B2, “N-phenpropylcyclopentyl-substituted glutaramide derivatives as inhibitors of neutral endopeptidase” (Pfizer Inc., priority 2001, dated 2005).
Structures can show the parent of a compound that is named as a salt. Where two headings read alike, the source gives them in different places.

Assays:
[1] = biological target: T1, NEP from canine kidney (Canis lupus familiaris, UniProt A0A8I3PBM8); assay: IC50 against NEP (canine kidney); type: biochemical
T1 construct: determined using NEP from canine kidney; from tissue; host or cells: canine kidney
T1 sequence (A0A8I3PBM8 1-749): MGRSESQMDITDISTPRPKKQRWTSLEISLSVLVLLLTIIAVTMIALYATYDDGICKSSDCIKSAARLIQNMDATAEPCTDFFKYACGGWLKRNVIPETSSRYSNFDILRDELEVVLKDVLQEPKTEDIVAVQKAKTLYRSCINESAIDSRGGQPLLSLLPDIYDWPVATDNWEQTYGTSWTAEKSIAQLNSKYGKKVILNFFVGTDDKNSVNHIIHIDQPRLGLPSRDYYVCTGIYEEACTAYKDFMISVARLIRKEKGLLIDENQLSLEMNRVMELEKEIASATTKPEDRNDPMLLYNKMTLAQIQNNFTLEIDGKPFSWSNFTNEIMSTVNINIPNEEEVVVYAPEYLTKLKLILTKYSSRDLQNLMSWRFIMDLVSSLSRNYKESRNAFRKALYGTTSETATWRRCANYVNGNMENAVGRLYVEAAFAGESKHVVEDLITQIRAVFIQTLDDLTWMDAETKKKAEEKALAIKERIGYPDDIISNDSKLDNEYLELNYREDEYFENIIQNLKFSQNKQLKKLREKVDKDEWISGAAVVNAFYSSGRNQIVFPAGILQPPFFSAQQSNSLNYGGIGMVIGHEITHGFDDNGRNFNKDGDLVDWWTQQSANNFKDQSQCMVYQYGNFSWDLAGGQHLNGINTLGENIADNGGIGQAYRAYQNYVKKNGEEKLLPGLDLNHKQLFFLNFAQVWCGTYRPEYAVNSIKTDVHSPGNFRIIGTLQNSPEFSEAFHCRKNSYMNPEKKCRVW
Experimental: The IC50 values presented below were determined using NEP from canine kidney.

[2] = NEP from canine kidney, read-out: IC50 against NEP

Row | SMILES | melting point | IC50 [1, 2] | IC50 [1]
1 | COCCC(CC1(C(=O)NCCCc2ccc(OC)cc2)CCCC1)C(=O)O (centres unmarked) (as salt: sodium) [Example 1, 4-Methoxy-2-{[1-({[3-(4-methoxyphenyl)propyl]amino}carbonyl)cyclopentyl]-methyl}butanoic acid] | 214 to 216 °C | – | –
2 | COCCC(CC1(C(=O)NC(C)COc2ccccc2Cl)CCCC1)C(=O)O (centres unmarked) [Example 3] | – | 22 nM | –
3 | COCCC(CC1(C(=O)NCCCc2ccc(F)cc2)CCCC1)C(=O)O (centres unmarked) [Example 4, 2-{[1-({[3-(4-fluorophenyl)propyl]amino}carbonyl)cyclopentyl]methyl}-4-methoxybutanoic acid] | – | – | 4 nM
4 | O=C(O)CCC1(C(=O)NCCCc2cccc3ccccc23)CCCC1 [Example 33] | – | 47 nM | –
5 | COCC[C@H](CC1(C(=O)NCCCc2ccc3c(c2)OCCO3)CCCC1)C(=O)O [Example 43] | – | 29 nM | –

Next, values leading:

Row | melting point | IC50 [1, 2] | IC50 [1] | SMILES
6 | 94.5 to 97 °C | 3 nM | – | O=C(O)CCC1(C(=O)NCCCc2ccc3c(c2)CCO3)CCCC1 [Example 21]
7 | – | 9 nM | – | CC(CCNC(=O)C1(CCC(=O)O)CCCC1)c1ccc2c(c1)CCO2 (centres unmarked) [Example 51]
